Where a name gives a salt, the structure may show the parent alone. Read-outs that look alike come from different tables or passages of the source.
Experiments:
[1] = system: fluid and cellular phases of an inflammatory response; assay: Reverse passive Arthus pleurisy assay, pleural inflammation (fluid exudation, cellular influx); format: in vivo, rat (male Lewis)
Description: (§1) The compounds of the invention are further tested in the reverse passive Arthus pleurisy assay to evaluate their effectiveness in inflammatory mediator release and/or the fluid and cellular phases of an inflammatory response.
(§2) This assay is carried out as follows:
(§3) A reverse passive Arthus reaction is induced in the pleural cavity of male Lewis rats (150-200 g; fasted overnight prior to use) by the intravenous administration of bovine serum albumin (BSA; 4 mg/0.2 ml) followed 30 minutes later by the injection of rabbit anti-BSA (1 mg/0.2 ml; lyophilized IgG fraction; Organon Teknika, West Chester, Pa.) into the right pleural space under halothane anesthesia. Drugs or vehicle (0.5% Tween-80) control are administered orally in a volume of 1 ml/100 g body weight at 1 hour prior to the anti-BSA. Animals are sacrificed at either the time of peak eicosanoid production (i.e. 5 minutes after anti-BSA for immunoreactive TxB2 10 minutes for immunoreactive LTB4, 20 minutes for immunoreactive LTC4) or at the time of peak neutrophil infiltration (4 hours after anti-BSA) by CO2 inhalation. The pleural cavity is then exposed, the fluid exudate removed by gentle vacuum aspiration and the volume of exudate is recorded. For the determination of cellular infiltration, the pleural cavity is rinsed with 3 ml of 0.1% EDTA in sterile saline, and the recovered wash is pooled with the exudate. Cell number is determined on a model ZBI Coulter counter. For determination of eicosanoid production, undiluted pleural exudate is microfuged and the supernatant is extracted with ethanol (8-10 times volume). Extracts are either stored at -20° C., or are evaporated to dryness under a stream of N2 and reconstituted in radioimmunoassay (RIA) buffer.
(§4) Inflammatory cells are expressed as 10^6 cells/ml, pleural exudate is expressed as ml of fluid, and the amount of eicosanoids in the pleural cavity is expressed as ng/ml of exudate. Mean ±S.E.M. is determined for each group. Percent inhibition (% I) of cell number, exudate volume and eicosanoid production is calculated for vehicle-treated control groups, and the responses in drug-treated rats are then expressed as the mean % I of the control. […] Exp. Ther., 96, 99-113 (1949).

[2] = system: 5-lipoxygenase in human whole blood; assay: Inhibition of 5-lipoxygenase in human whole blood (LTB4); format: cell-based
Description: The assay of this Example measures the ability of the compounds tested to inhibit 5-lipoxygenase in human whole blood.
as §2
Blood is obtained in 50-100 ml quantities from male donors. White blood cell counts and differentials are made. Two ml of blood are placed in a 15 ml polypropylene test tube. Compounds are solubilized in dimethylsulfoxide and diluted 1:10 in 10% bovine serum albumin in phosphate buffered saline, pH 7.4 resulting in a final dimethylsulfoxide concentration of 0.1% in the blood. Then, compounds are added to the blood in a shaking water bath at 37° C. for 10 minutes prior to the addition of 30 μM calcium ionophore (A23187; Sigma). After ionophore administration, whole blood samples are mixed and incubated for 20 minutes at […] in a shaking water bath. Incubation is terminated by placing samples in an ice bath and immediately adding ethylene glycol-bis-(β-aminoethyl ether)-N,N,N',N'-tetraacetic acid (10 mM). Samples are mixed and centrifuged at 1200×g for 15 minutes at 4° C. Preparation of samples for evaluation by RIA or ELISA is carried out by the following protocol. Plasma is removed from sample tubes, placed in 15 ml polypropylene test tubes containing 8 ml methanol, and then vortexed to precipitate protein. Samples are stored at -70° C. overnight. The next day, samples are centrifuged at 200×g for 15 minutes at 4° C. to pellet the precipitate. Samples are dried in a Savant speed vac concentrator, reconstituted to original volume with ice cold RIA or ELISA buffer, and stored at -70° C. until assayed. The assay for eicosanoids (LTB4, TxB2, and PGE2) is performed as described by the manufacturer of the [^3 H]-RIA kit or ELISA kit (LTB4 -Amersham, TxB2 and PGE2 - Caymen Chemical).
The total eicosanoid level in 2 ml of blood is calculated and reported as ng/10^6 neutrophils. […] Drug effects are expressed as percent change from control values.
Compounds tested in vitro are solubilized in dimethylsulfoxide and diluted 1:10 in 10% bovine serum albumin in phosphate buffer saline resulting in a final dimethylsulfoxide concentration of 0.1% in the blood.

LTB4 = assay: Reverse passive Arthus pleurisy assay, inflammatory mediator release: LTB4; format: in vivo, rat (male Lewis); settings: for % Inhibition of LTB4 Synthesis: 3 hours before challenge
Description: as §1, §2
as §3, with “Drugs or vehicle (0.5% Tween-80) control are administered orally in a volume of 1 ml/100 g body weight at 1 hour prior to the anti-BSA.” left out
Eicosanoids are quantitated by RIA according to the procedure specified by the RIA kit manufacturer (Advanced Magnetics, Cambridge, Mass.). Briefly, 100 μl of ^3 H-labeled eicosanoid and 100 μl of specific antibody are sequentially added to 100 μl of extracted pleural exudate in BGG -phosphate buffer which contains 0.01 M phosphate, 0.1% bovine gamma globulin and 0.1% sodium azide at pH 7.0. Antibody-bound eicosanoid is separated from unbound eicosanoid by the addition of 750 μl of dextran (0.4%)-coated charcoal (0.4% Norit A) containing 0.1% sodium azide. The mixture is centrifuged at 2000 RPM at 5° C. for 15 minutes to pellet the charcoal and adsorbed unbound eicosanoid. Antibody-bound labeled eicosanoid is quantitated by counting in a liquid scintillation counter, and is correlated to concentration by a standard curve.
as §4

[3] = target: T1, LTD4-induced contractions of isolated guinea pig trachea (Cavia porcellus, UniProt Q2NNR5); assay: In vitro isolated guinea pig trachea assay, LTD4 antagonist activity; parameters: species or system guinea pig (male Hartley); settings: 1 × 10^-5 M
T1 construct: isolated guinea pig trachea; from tissue; host or cells: tracheal rings of male Hartley guinea pigs
T1 sequence (Q2NNR5 1-340): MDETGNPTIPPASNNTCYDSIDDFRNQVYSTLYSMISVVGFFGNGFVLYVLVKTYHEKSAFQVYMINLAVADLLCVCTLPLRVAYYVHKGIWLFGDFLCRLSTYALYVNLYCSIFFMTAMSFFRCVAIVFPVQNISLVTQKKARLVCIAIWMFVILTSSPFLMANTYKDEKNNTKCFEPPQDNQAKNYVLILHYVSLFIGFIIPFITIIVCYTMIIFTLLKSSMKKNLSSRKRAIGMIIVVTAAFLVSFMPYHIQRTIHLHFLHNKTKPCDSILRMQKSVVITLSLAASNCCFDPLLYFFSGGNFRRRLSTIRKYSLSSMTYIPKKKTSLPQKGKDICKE
Description: The LTD4 antagonist activity of the compounds of the invention is assessed in the in vitro isolated guinea pig trachea assay. This assay is carried out as follows: Male Hartley guinea pigs (350-400 g) are euthanized by a blow to the head, the neck is opened and the trachea removed. The trachea is maintained in aerated physiological salt solution, cleared of connective tissue and fat and cut into rings approximately 2 mm in width (usually containing two cartilaginous segments per ring). Two pieces of silk suture are then passed through the lumen of the tracheal ting and are tied around the cartilage, one on each side of the trachealis muscle. The tracheal ring is suspended between a glass hook and a force displacement transducer in a 10 ml organ bath for measurement of isometric tension. […] The tracheal rings are maintained at 2 g resting tension and equilibrated for 45 minutes (with frequent washing and readjustment of resting tension). The tracheal […] contracted by the addition of carbachol (3×10^-6 M), to determine tissue responsiveness and establish a reference contraction. On attainment of a stable level of contraction (approximately 30 minutes), the tissues are washed several times until baseline tension has been restored and the re-equilibrated for 30 minutes. The tissues are then incubated for 45 minutes with a test antiagonist (either 1×10^-6 M or 1×10^-5 M) or 10 μl of an appropriate solvent control (control, nontreated). One tissue in each group serves as the control. Twenty minutes prior to the construction of the LTD4 cumulative concentration-response curve, L-[…]×10^-2 M final bath concentration) is added to inhibit bioconversion of LTD4 to LTE4. Only one LTD4 concentration-response curve is constructed in each tissue. All responses to LTD4 in an individual tissue are measured as a percentage of the reference contraction of that tissue to carbachol. LTD4 antagonist activity is determined by comparison of the concentration response curves of LTD4 in the presence and absence of antagonist. Assessment of the relative rightward shift of the antagonist treated curve relative to the solvent (control) treated tissue is calculated as a concentration ratio (Eq. A) and used in subsequent calculations to derive an antagonist pKB value (Eqs. B and C). […] If a compound is found to be active and/or depress the maximal response to LTD4, then a range of concentrations of the test compound should be used generating multiple concentration ratios which would then be used to perform a Schild analysis, and determination of a pA2 value where appropriate.

Kb [3]	SMILES	% Inhibition of LTB4 ([2]; at 25 μM)	% Inhibition of LTB4 Synthesis (LTB4; 25 mg/kg p.o.)	further results
	C[C@@H]1C[C@H]2[C@@H]3CCC4=CC(=O)C=C[C@]4(C)[C@@]3(F)[C@@H](O)C[C@]2(C)[C@@]1(O)C(=O)CO [Dexamethasone]			ED30 Fluid Exudation ([1]; p.o., pleural inflammation, standard drugs): 0.05 mg/kg
631 nM	O=C(O)Cc1ccc(-c2ccc(OCc3ccc4ccccc4n3)cc2)c(F)c1 [Example 2, 2-Fluoro-4'-(2-quinolinylmethoxy)-[1,1'-biphenyl]-4-acetic acid]	5%	34%	
> 10000 nM	CC(C)N(O)C(=O)Cc1ccc(-c2ccc(OCc3nc4ccccc4s3)cc2)cc1 [Example 15, N-Hydroxy-N-isopropyl-4'-(2-benzothiazolymethoxy)[1,1'-biphenyl]-4-acetamide]	77%		% Inhibition of LTB4 Synthesis (LTB4; 10 mg/kg p.o.): 12%
> 7940 nM	CN(O)C(=O)Cc1ccc(-c2ccc(OCc3csc(-c4ccccc4)n3)cc2)cc1 [Example 18]	97%	32%	IC50 [2]: 500 nM
	CC(C)N(O)C(=O)Cc1ccc(-c2ccc(OCc3csc(-c4ccccc4)n3)cc2)cc1 [Example 20, N-Hydroxy-N-isopropyl-4'-[(2-phenylthiazol-4yl)methoxy][1,1'-biphenyl]-4-acetamide]	93%	19%	pKB [3]: < 5.2
5010 nM	CC(C(=O)N(C)O)c1ccc(-c2ccc(OCc3csc(-c4ccccc4)n3)cc2)cc1 (stereo not drawn) [Example 22, N-Hydroxy-N,α-dimethyl-4'-[(2-phenylthiazol-4-yl)methoxy][1,1'-biphenyl]-4-acetamide,sodium salt, hydrate]			% Inhibition of LTB4 ([2]; at 25 μM, sodium salt, hydrate): 74%; IC50 ([2]; sodium salt, hydrate): 9000 nM; % Inhibition of LTB4 Synthesis (LTB4; 25 mg/kg p.o., sodium salt, hydrate): 37%
1000 nM	CC(C(=O)N(C)O)c1ccc(-c2ccc(OCc3nc4ccccc4n3C)cc2)cc1 (stereo not drawn) [Example 24, N-Hlydroxy-N,α-dimethyl-4'-[(1-methyl-1H-benzimidazol-2-yl)methoxy]-[1,1'-biphenyl]-4-acetamide, hydrochloride salt]		56%	
> 10000 nM	CN(O)C(=O)Cc1ccc(-c2ccc(OCc3nc4ccccc4s3)cc2)c(F)c1 [Example 26]	86%	7%	IC50 [2]: 1300 nM
	CN(O)C(=O)Cc1cccc(C(=O)c2ccc(OCc3nc4ccccc4s3)cc2)c1 [Example 30, 2-{3-[4-(Benzothiazol-2-ylmethoxy)-benzoyl]-phenyl}-N-hydroxy-N-methyl-4-acetamide 0,6 ethyl acetate solvate]		21%	IC50 [2]: 980 nM; % Inhibition of LTB4 ([2]; at 10 μM): 96%
> 10000 nM	CC(c1ccc(-c2ccc(OCc3nc4ccccc4s3)cc2)cc1)N(O)C(N)=O (centres unmarked) [Example 33, 1-{1-[4'-(Benzothiazol-2-ylmethoxy)biphenyl-4-yl]-ethyl}-1-hydroxy-urea]		2%	% Inhibition of LTB4 ([2]; at 10 μM): 10%
	COc1ccc2c(c1)c(CC(=O)O)c(C)n2C(=O)c1ccc(Cl)cc1 [Indomethacin]			% Inh LTB4 (LTB4; 4 mg/kg p.o., standard drugs): 12%; % Inh Cellular Influx ([1]; 8 mg/kg p.o., standard drugs): 19%; ED30 ([1]; Rattus norvegicus, po, read-out: ED30 Fluid Exudation): 2.5 mg/kg

SMILES	Kb [3]	% Inhibition of LTB4 ([2]; at 25 μM)	% Inhibition of LTB4 Synthesis (LTB4; 25 mg/kg p.o.)	further results
CC(C(=O)N(C)O)c1ccc(-c2ccc(OCc3nc4ccccc4s3)cc2)cc1 (centres unmarked) [Example 17, N-Hydroxy-N.,a,-dimethyl-4'-(2-benzothiazolylmethoxy)[1,1'-biphenyl]-4-acetamide, sodium salt, methanol solvate]	> 3160 nM		37%	
